# Results from patent publication US9062032B2, “Aminoalkyl-substituted N-thienylbenzamide derivative” (ASTELLAS PHARMA INC., priority 2011, dated 2015).
# Counter-ions that a name gives are not always drawn.
# Experiments:
# rat NPT-IIb = target: T1, rat NPT-IIb (Rattus norvegicus, UniProt Q9JJ09); assay: Inhibitory action against 33P-phosphate uptake into rat NPT-IIb expression cell; type: cell-based; details: HEK293; compound concentration 1 μM; rat NPT-IIb stable expression 293 cells; read-out: Int. 1 (%): inhibition rate of the 33P-phosphate uptake into the rat NPT-IIb
# T1 construct: rat NPT-IIb ORF was cloned into p3×FLAG-CMV-10 by PCR; expressed in transfected cells
# T1 sequence (Q9JJ09 1-695): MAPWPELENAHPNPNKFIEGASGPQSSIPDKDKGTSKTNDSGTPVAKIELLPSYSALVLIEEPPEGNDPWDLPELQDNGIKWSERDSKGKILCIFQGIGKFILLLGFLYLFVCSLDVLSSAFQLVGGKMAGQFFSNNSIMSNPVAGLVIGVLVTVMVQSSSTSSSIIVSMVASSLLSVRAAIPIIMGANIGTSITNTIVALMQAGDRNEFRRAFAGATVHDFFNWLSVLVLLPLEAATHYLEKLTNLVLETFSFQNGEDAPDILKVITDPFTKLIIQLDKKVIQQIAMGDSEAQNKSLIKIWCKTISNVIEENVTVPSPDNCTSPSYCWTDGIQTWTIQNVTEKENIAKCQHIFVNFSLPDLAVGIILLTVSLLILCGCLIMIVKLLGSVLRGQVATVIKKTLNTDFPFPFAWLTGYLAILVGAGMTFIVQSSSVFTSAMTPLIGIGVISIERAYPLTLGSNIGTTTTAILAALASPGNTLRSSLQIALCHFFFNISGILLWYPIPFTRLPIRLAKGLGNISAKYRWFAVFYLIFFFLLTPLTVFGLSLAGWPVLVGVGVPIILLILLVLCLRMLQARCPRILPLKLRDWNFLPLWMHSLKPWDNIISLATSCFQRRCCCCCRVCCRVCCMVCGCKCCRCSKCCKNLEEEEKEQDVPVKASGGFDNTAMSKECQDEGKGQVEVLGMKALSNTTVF
# From the text: Inhibitory Action Against ^33P-Phosphate Uptake into Rat NPT-IIb Expression Cell
# (1) Preparation of Rat NPT-IIb Expression Cell
# A rat small intestine cDNA library was used as a template, and rat NPT-IIb ORF was cloned into p3×FLAG-CMV-10 by PCR according to the prescribed method. Thereafter, 293 cells were transfected with the cloned rat NPT-IIb expression plasmid, thereby obtaining a rat NPT-IIb stable expression cell line by using G418.
# (2) Evaluation System for Inhibition of Phosphate Uptake into Rat NPT-IIb Expression Cell
# The rat NPT-IIb expression cells were seeded to a 96-well plate, followed by incubation overnight. Thereafter, the culture medium was removed, the plate was washed with buffer A (137 mM N-methyl-D-glucamine, 5.4 mM KCl, 2.8 mM CaCl2, 1.2 mM MgCl2, and 10 mM HEPES (adjusted to pH 7.4 using HCl)), and then buffer B (137 mM NaCl, 5.4 mM KCl, 2.8 mM CaCl2, 1.2 mM MgCl2, 0.1 mM KH2PO4, and 10 mM HEPES (adjusted to pH 7.4 using KOH)) was added thereto. Subsequently, a compound with a concentration of 10 times the evaluation concentration was prepared by dilution with the buffer B and added thereto. After the resultant was incubated in a CO2 incubator, the buffer B supplemented 50 μCi/mL of ^33P was added thereto, and then the resultant was incubated again in a CO2 incubator. After the reaction, the buffer was removed, the plate was washed with buffer C (137 mM NaCl, 10 mM Tris/HCl, pH 7.2). Thereafter, MicroScint-20 was added thereto, and ^33P uptake was measured using TopCount. An inhibition rate was calculated by the following formula. Inhibition rate (%)=(1−(^33P uptake of well treated with chemical)/(^33P uptake of DMSO-added well))×100
# Table 1 illustrates examples of the inhibition rate (Int. 1) of the ^33P-phosphate uptake into the rat NPT-IIb in some of the compounds of the present invention at a concentration of drug efficacy evaluation of 1 μM. Here, Ex represents the number of example compounds described later (the same shall apply hereinafter).
# [1] = tested on: phosphate absorption from the intestinal tract; assay: Action of inhibiting increase in blood radioactivity in rat orally loaded with 32P phosphate (phosphate absorption inhibitory action); type: in vivo; details: male Wistar rats, 3 mg/kg oral, 32P phosphate load 5 min after dosing, serum radioactivity AUC0-30 min
# Procedure: Action of Inhibiting Increase in Blood Radioactivity in Rat Orally Loaded with ^32P Phosphate (Phosphate Absorption Inhibitory Action)
# Male Wistar rats (6- to 7-week old) were fasted for 24 hours and then used as experimental animals. The compound was suspended or dissolved with a solvent, and was used at a concentration of 0.6 mg/mL. The compound was forcibly orally administered at a dose of 3 mg/kg to the animals of a compound-administered group. Control-group animals were administered a solvent containing no compound at a dose of 5 mL/kg. After 5 minutes from administration of the compound or the solvent, a ^32P-containing phosphate solution (8.3 mM NaH2PO4) was orally administered thereto at a dose of 7.2 mL/kg. After 15 minutes and 30 minutes, the blood was taken from the orbital venous plexus and the serum was collected. Radioactivity in 0.1 mL of the serum was measured by a liquid scintillation counter. AUC0-30 min in calculated from the measured counts was considered as a phosphate absorption amount. The phosphate absorption inhibitory rate was determined from the AUC0-30 min value according to the following formula. Inhibition rate of phosphate absorption (%)=(1−phosphate absorption count of compound-administered group/phosphate absorption count of standard group)×100
# Table 2 illustrates examples of the inhibition rate (Int. 2) of phosphate absorption in regard to some of the compounds of Formula (I).
SMILES,inhibition at 1 µM (rat NPT-IIb) [%],Int. 2 (%): inhibition rate of phosphate absorption [1] [%]
"CCC(CC)N(CCN(C)C(=O)CCC(=O)O)Cc1cccc(C(=O)Nc2sc3c(c2C(=O)Nc2ccc(CCc4ccc(C(=O)O)cc4)cc2)CCCC3)c1.Cl [Example 2, 4-(2-{4-[({2-[(3-{[{2-[(3-carboxypropanoyl)(methyl)amino]ethyl}(pentan-3-yl)amino]methyl}benzoyl)amino]-4,5,6,7-tetrahydro-1-benzothiophen-3-yl}carbonyl)amino]phenyl}ethyl)benzoic acid hydrochloride]",87,>60
"CCC(CC)N(CCN(C)C(=O)OCC(=O)O)Cc1cccc(C(=O)Nc2sc3c(c2C(=O)Nc2ccc(CCc4ccc(C(=O)O)cc4)cc2)CCCC3)c1.Cl [Example 4, 4-(2-{4-[({2-[(3-{[(2-{[(carboxymethoxy)carbonyl](methyl)amino}ethyl)(pentan-3-yl)amino]methyl}benzoyl)amino]-4,5,6,7-tetrahydro-1-benzothiophen-3-yl}carbonyl)amino]phenyl}ethyl)benzoic acid hydrochloride]",77,53
CC(C)[C@@H](C)N(CCN(C)C(=O)CCC(=O)O)Cc1cccc(C(=O)Nc2sc3c(c2C(=O)Nc2ccc(CCc4ccc(C(=O)O)cc4)cc2)CCCC3)c1 [Example 70],60,
"CCC(CC)N(Cc1cccc(C(=O)Nc2sc3c(c2C(=O)Nc2ccc(CCc4ccc(C(=O)O)cc4)cc2)CCCC3)c1)C(=O)CC(C)(C)CC(=O)O [Example 121, 4-(2-{4-[({2-[(3-{[(4-carboxy-3,3-dimethylbutanoyl)(pentan-3-yl)amino]methyl}benzoyl)amino]-4,5,6,7-tetrahydro-1-benzothiophen-3-yl}carbonyl)amino]phenyl}ethyl)benzoic acid]",79,
CCC(CC)N(CCN(C)C(=O)CCC(=O)O)Cc1cccc(C(=O)Nc2sc(C3CCCCC3)cc2C(=O)Nc2ccc(CCc3ccc(C(=O)O)cc3)cc2)c1 [Example 41],73,
CCN(CCN(Cc1cccc(C(=O)Nc2sc3c(c2C(=O)Nc2ccc(CCc4ccc(C(=O)O)cc4)cc2)CCCC3)c1)C1CC1)C(=O)CCC(=O)O [Example 31],87,
CCC(CC)N(CCN(C)C(=O)CCC(=O)O)Cc1cc(C(=O)Nc2sc3c(c2C(=O)Nc2ccc(CCc4ccc(C(=O)O)cc4)cc2)CCCC3)ccn1 [Example 99],71,
"CCC(CC)N(CCN(C)C(=O)CCC(C)(C)C(=O)O)Cc1cccc(C(=O)Nc2sc3c(c2C(=O)Nc2ccc(CCc4ccc(C(=O)O)cc4)cc2)CCCC3)c1 [Example 67, 4-(2-{4-[({2-[(3-{[{2-[(4-carboxy-4-methylpentanoyl)(methyl)amino]ethyl}(pentan-3-yl)amino]methyl}benzoyl)amino]-4,5,6,7-tetrahydro-1-benzothiophen-3-yl}carbonyl)amino]phenyl}ethyl)benzoic acid hydrochloride]",89,
"CCC(CC)N(Cc1cccc(C(=O)Nc2sc3c(c2C(=O)Nc2ccc(CCc4ccc(C(=O)O)cc4)cc2)CCCC3)c1)C(=O)CCC(C)(C)C(=O)O [Example 109, 4-(2-{4-[({2-[(3-{[(4-carboxy-4-methylpentanoyl)(pentan-3-yl)amino]methyl}benzoyl)amino]-4,5,6,7-tetrahydro-1-benzothiophen-3-yl}carbonyl)amino]phenyl}ethyl)benzoic acid]",86,
CC(C)N(Cc1cccc(C(=O)Nc2sc3c(c2C(=O)Nc2ccc(CCc4ccc(C(=O)O)cc4)cc2)CCCC3)c1)[C@H]1CC[C@H](C(=O)O)CC1 [Example 172],48,
CCC(CC)N(CCN(C)C(=O)CCC(=O)O)Cc1cccc(C(=O)Nc2sc3c(c2C(=O)Nc2ccc(CCCc4ccc(C(=O)O)cc4)cc2)CCCC3)c1 [Example 53],85,
CCC(CC)N(CCN(C)C(=O)CCC(=O)O)Cc1cccc(C(=O)Nc2sc3c(c2C(=O)Nc2ccc(CCc4ccc(C(=O)O)cc4)nc2)CCCC3)c1 [Example 96],70,
CCC(CC)N(CCN(C)C(=O)CCC(=O)O)Cc1cccc(C(=O)Nc2sc3c(c2C(=O)Nc2ccc(CCc4ccc(C(=O)O)cc4)cc2)CCCCCC3)c1 [Example 43],65,
CCC(CC)N(CCN(CCOC)C(=O)CCC(=O)O)Cc1cccc(C(=O)Nc2sc3c(c2C(=O)Nc2ccc(CCc4ccc(C(=O)O)cc4)cc2)CCCC3)c1.Cl [Example 60],86,56
CCC(CC)N(CCc1cccc(C(=O)Nc2sc3c(c2C(=O)Nc2ccc(CCc4ccc(C(=O)O)cc4)cc2)CCCC3)c1)CCN(C)C(=O)CCC(=O)O [Example 79],75,
CC(C)N(CCN(C)C(=O)CCC(=O)O)Cc1cccc(C(=O)Nc2sc3c(c2C(=O)Nc2ccc(CCc4ccc(C(=O)O)cc4)cc2)CCCC3)c1 [Example 38],61,
CN(CCN(Cc1cccc(C(=O)Nc2sc3c(c2C(=O)Nc2ccc(CCc4ccc(C(=O)O)cc4)cc2)CCCC3)c1)C1CC1)C(=O)CCC(=O)O [Example 37],77,
CCC(CC)N(CCCN(C)C(=O)CCC(=O)O)Cc1cccc(C(=O)Nc2sc3c(c2C(=O)Nc2ccc(CCc4ccc(C(=O)O)cc4)cc2)CCCC3)c1.Cl [Example 66],76,59
